In this assay the target is T1, FXR ligand binding domain (Homo sapiens, UniProt Q96RI1).
T1 sequence (Q96RI1 1-486): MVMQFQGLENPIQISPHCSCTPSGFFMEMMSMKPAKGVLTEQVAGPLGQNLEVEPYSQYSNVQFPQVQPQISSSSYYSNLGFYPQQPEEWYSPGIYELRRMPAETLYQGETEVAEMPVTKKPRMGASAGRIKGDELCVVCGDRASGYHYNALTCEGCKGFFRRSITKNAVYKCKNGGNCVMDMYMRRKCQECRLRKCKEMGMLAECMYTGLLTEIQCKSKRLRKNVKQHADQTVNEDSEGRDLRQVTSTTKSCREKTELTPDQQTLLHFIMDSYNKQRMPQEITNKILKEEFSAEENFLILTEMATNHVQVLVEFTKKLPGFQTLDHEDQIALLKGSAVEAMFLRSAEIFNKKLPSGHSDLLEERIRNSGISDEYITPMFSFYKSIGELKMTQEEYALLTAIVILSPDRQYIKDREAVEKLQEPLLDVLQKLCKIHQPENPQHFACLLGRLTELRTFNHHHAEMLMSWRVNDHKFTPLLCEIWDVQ
Briefly: Radioligand binding assay (radioligand displacement, scintillation proximity). The following applies: GST-FXR LBD fusion protein on SPA beads, radioligand 2,N-dicyclohexyl-2-[2-(2,4 dimethoxy-phenyl)-benzoimidazol-1-yl]-acetamide, RT 30 minutes. Here is the method:
The following tests were carried out in order to determine the activity of the compounds of formula I. Background information on the binding assay can be found in: Nichols J S et al. “Development of a scintillation proximity assay for peroxisome proliferator-activated receptor gamma ligand binding domain”, (1998) Anal. Biochem. 257: 112-119.
Bacterial and mammalian expression vectors were constructed to produce glutathione-s-transferase (GST) and Gal4 DNA binding domain (GAL) proteins fused to the ligand binding domain (LBD) of human FXR (aa 193-473). To accomplish this, the portions of the sequences encoding the FXR LBD were amplified by polymerase chain reaction (PCR) from a full-length clone by PCR and then subcloned into the plasmid vectors. The final clone was verified by DNA sequence analysis.
The induction, expression, and subsequent purification of GST-LBD fusion protein was performed in E. coli strain BL21(pLysS) cells by standard methods (Current Protocols in Molecular Biology, Wiley Press, ed. Ausubel et al).
Radioligand Binding Assay
Binding of test substances to the FXR ligand binding domain was assessed in a radioligand displacement assay. The assay was performed in a buffer consisting of 50 mM Hepes, pH 7.4, 10 mM NaCl, 5 mM MgCl2. For each reaction well in a 96-well plate, 40 nM of GST-FXR LBD fusion protein was bound to 10 μg glutathione ytrium silicate SPA beads (Pharmacia Amersham) in a final volume of 50 μl by shaking. A radioligand (eg. 40 nM) of 2,N-dicyclohexyl-2-[2-(2,4 dimethoxy-phenyl)-benzoimidazol-1-yl]-acetamide) was added, and the reaction incubated at RT for 30 minutes in the presence of test compounds followed by scintillation proximity counting. All binding assays were performed in 96-well plates and the amount of bound ligand was measured on a Packard TopCount using OptiPlates (Packard). Dose response curves were performed within a range of concentration from 6×10^−9 M to 2.5×10^−5 M.
`Cc1cc(-c2nnn[nH]2)cc(C)c1OCC(c1c2ccccc2nn1-c1ccc(Cl)cc1)C1CCCCC1` (racemic) [Example 52, [rac]-2-(4-Chloro-phenyl)-3-{1-cyclohexyl-2-[2,6-dimethyl-4-(2H-tetrazol-5-yl)-phenoxy]-ethyl}-2H-indazole] gave an IC50 of 4 nM. This lies in the single-digit nanomolar range. The figure for `O=C(O)c1ccc(OCC(c2c3ccccc3nn2-c2ccc(Cl)cc2)C2CCCCC2)nc1` (racemic) [Example 53, [rac]-6-{2-[2-(4-Chloro-phenyl)-2H-indazol-3-yl]-2-cyclohexyl-ethoxy}-nicotinic acid] is 730 nM; for `O=C(O)C1(Oc2ccc(OCC(c3c4c(nn3-c3ccc(Cl)cc3)CCCC4)C3CCCCC3)cc2)CC1` (racemic) [Example 55, [rac]-1-(4-{2-[2-(4-Chloro-phenyl)-4,5,6,7-tetrahydro-2H-indazol-3-yl]-2-cyclohexyl-ethoxy}-phenoxy)-cyclopropanecarboxylic acid] it is 42 nM; for `O=C(O)C1(Oc2ccc(OC(c3c4cc(F)c(F)cc4nn3-c3ccc(Cl)cc3)C3CCCCC3)cc2)CC1` (racemic) [Example 56, [rac]-1-(4-{[2-(4-Chloro-phenyl)-5,6-difluoro-2H-indazol-3-yl]-cyclohexyl-methoxy}-phenoxy)-cyclopropanecarboxylic acid] it is 170 nM. With `O=C(Nc1ccc(-c2nnn[nH]2)cc1)C(c1c2c(nn1-c1ccc(Cl)cc1)CCCC2)C1CCCCC1` (racemic) [Example 57, [rac]-2-[2-(4-Chloro-phenyl)-4,5,6,7-tetrahydro-2H-indazol-3-yl]-2-cyclohexyl-N[4-(1H-tetrazol-5-yl)-phenyl]-acetamide], the IC50 was 45 nM. This IC50 lies about 3.8-fold lower than the previous one. The figure for `O=C(Nc1ccc(-c2nnn[nH]2)cc1F)C(c1c2c(nn1-c1ccc(Cl)cc1)CCCC2)C1CCCCC1` (racemic) [Example 58, [rac]-2-[2-(4-Chloro-phenyl)-4,5,6,7-tetrahydro-2H-indazol-3-yl]-2-cyclohexyl-N-[2-fluoro-4-(1H-tetrazol-5-yl)-phenyl]-acetamide] is 53 nM. Next, `O=C(N[C@H]1CC[C@H](O)CC1)C(c1c2c(nn1-c1ccc(Cl)cc1)CCCC2)C1CCCCC1` (mixture of isomers) [Example 59, [rac]-2-[2-(4-Chloro-phenyl)-4,5,6,7-tetrahydro-2H-indazol-3-yl]-2-cyclohexyl-(trans)-N-(4-hydroxy-cyclohexyl)-acetamide]: 3040 nM; `O=C(O)CCc1ccc(NC(=O)C(c2c3c(nn2-c2ccc(Cl)cc2)CCCC3)C2CCCCC2)c(F)c1` (racemic) [Example 61, [rac]-3-(4-{2-[2-(4-Chloro-phenyl)-4,5,6,7-tetrahydro-2H-indazol-3-yl]-2-cyclohexyl-acetylamino}-3-fluoro-phenyl)-propionic acid]: 130 nM; `O=C(O)c1ccc(NC(=O)C(c2c3c(nn2-c2ccc(Cl)cc2)CCCC3)C2CCCCC2)c(Cl)c1` (racemic) [Example 62, [rac]-3-Chloro-4-{2-[2-(4-chloro-phenyl)-4,5,6,7-tetrahydro-2H-indazol-3-yl]-2-cyclohexyl-acetylamino}-benzoic acid]: 80 nM. Next, `O=C(O)c1ccc(SCC(c2c3c(nn2-c2ccc(Cl)cc2)CCCC3)C2CCCCC2)cc1` (racemic) [Example 63, [rac]-4-{2-[2-(4-Chloro-phenyl)-4,5,6,7-tetrahydro-2H-indazol-3-yl]-2-cyclohexyl-ethylsulfanyl}-benzoic acid]: 200 nM. `O=C(O)c1ccc(OCC(c2c3c(nn2-c2ccc(Cl)cc2)CCCC3)C2CCCCC2)nc1` (racemic) [Example 64, [rac]-6-{2-[2-(4-Chloro-phenyl)-4,5,6,7-tetrahydro-2H-indazol-3-yl]-2-cyclohexyl-ethoxy}-nicotinic acid] registered a 50% inhibitory concentration (IC50) of 250 nM.

Regarding `Clc1ccc(-n2nc3c(c2C(CNc2ccc(-c4nnn[nH]4)cc2)C2CCCCC2)CCCC3)cc1` (racemic) [Example 65, [rac]-{2-[2-(4-Chloro-phenyl)-4,5,6,7-tetrahydro-2H-indazol-3-yl]-2-cyclohexyl-ethyl}-[4-(1H-tetrazol-5-yl)-phenyl]-amine], the IC50 worked out at 4 nM. Compared with the last compound, the IC50 is about 62-fold lower.

`O=C(Nc1ccc(OC2(C(=O)O)CC2)cc1F)C(c1c2c(nn1-c1ccc(Cl)cc1)CCCC2)C1CCCCC1` (single isomer, unassigned; (+)) [Example 22, (+)-1-(4-{2-[2-(4-Chloro-phenyl)-4,5,6,7-tetrahydro-2H-indazol-3-yl]-2-cyclohexyl-acetylamino}-3-fluoro-phenoxy)-cyclopropanecarboxylic acid] registered an IC50 of 2060 nM. Next, `O=C(NC1CCCCC1)C(c1c2ccccc2nn1-c1ccccc1)C1CCCCC1` (stereo not shown) [Example 1, 2,N-Dicyclohexyl-2-(2-phenyl-2H-indazol-3-yl)-acetamide]: 1920 nM; `COc1cccc(C(C(=O)NC2CCCCC2)c2c3ccccc3nn2-c2ccccc2)c1` (stereo not shown) [Example 2, N-Cyclohexyl-2-(3-methoxy-phenyl)-2-(2-phenyl-2H-indazol-3-yl)-acetamide]: 9170 nM; `O=C(NC1CCCCC1)C(c1ccccc1)c1c2ccccc2nn1-c1ccccc1` (stereo not shown) [Example 3, N-Cyclohexyl-2-phenyl-2-(2-phenyl-2H-indazol-3-Y1)-acetamide]: 7440 nM.

In turn, `O=C(NC1CCCCC1)C(c1c2ccccc2nn1-c1ccc(Cl)cc1)C1CCCCC1` (stereo not shown) [Example 4, 2-[2-(4-Chloro-phenyl)-2H-indazol-3-yl]-2,N-dicyclohexyl-acetamide] displayed an IC50 of 1390 nM. `O=C(O)c1ccc(NC(=O)C(O)(c2c3c(nn2-c2ccc(Cl)cc2)CCCC3)C2CCCCC2)c(F)c1` (stereo not shown) [Example 5, 4-{2-[2-(4-Chloro-phenyl)-4,5,6,7-tetrahydro-2H-indazol-3-yl]-2-cyclohexyl-2-hydroxy-acetylamino}-3-fluoro-benzoic acid] came in with an IC50 of 2050 nM.

For `O=C(NC1CCCCC1)C(c1c2c(nn1-c1ccc(Cl)cc1)CCCC2)C1CCCCC1` (stereo not shown) [Example 6, 2-[2-(4-Chloro-phenyl)-4,5,6,7-tetrahydro-2H-indazol-3-yl]-2,N-dicyclohexyl-acetamide], the 50% inhibitory concentration (IC50) was 155 nM. The compound `O=C(O)c1ccc(NC(=O)C(c2c3c(nn2-c2ccc(Cl)cc2)CCCC3)C2CCCCC2)cc1` (stereo not shown) [Example 7, 4-{2-[2-(4-Chloro-phenyl)-4,5,6,7-tetrahydro-2H-indazol-3-yl]-2-cyclohexyl-acetylamino}-benzoic acid] gave an IC50 of 800 nM. Next, `O=C(NC1CCCC1)C(c1c2c(nn1-c1ccc(Cl)cc1)CCCC2)C1CCCCC1` (stereo not shown) [Example 8, 2-[2-(4-Chloro-phenyl)-4,5,6,7-tetrahydro-2H-indazol-3-yl]-2-cyclohexyl-N-cyclopentyl-acetamide]: 1060 nM. Next, `O=C(NC1CCCC1)C(O)(c1c2c(nn1-c1ccc(Cl)cc1)CCCC2)C1CCCCC1` (stereo not shown) [Example 9, 2-[2-(4-Chloro-phenyl)-4,5,6,7-tetrahydro-2H-indazol-3-yl]-2-cyclohexyl-N-cyclopentyl-2-hydroxy-acetamide]: 4860 nM; `O=C(O)c1ccc(NC(=O)C(c2c3c(nn2-c2ccc(Cl)cc2)CCCC3)C2CCCCC2)c(F)c1` (stereo not shown) [Example 11, 4-{2-[2-(4-Chloro-phenyl)-4,5,6,7-tetrahydro-2H-indazol-3-yl]-2-cyclohexyl-acetylamino}-3-fluoro-benzoic acid]: 1300 nM.

`O=C(O)c1ccc(NC(=O)C(c2c3ccccc3nn2-c2ccc(Cl)cc2)C2CCCCC2)cc1` (stereo not shown) [Example 12, 4-{2-[2-(4-Chloro-phenyl)-2H-indazol-3-yl]-2-cyclohexyl-acetylamino}-benzoic acid] gave an IC50 of 7300 nM. As to `O=C(O)c1ccc(NC(=O)C(c2c3ccccc3nn2-c2ccc(Cl)cc2)C2CCCCC2)c(F)c1` (stereo not shown) [Example 13, 4-{2-[2-(4-Chloro-phenyl)-2H-indazol-3-yl]-2-cyclohexyl-acetylamino}-3-fluoro-benzoic acid], the IC50 amounted to 4900 nM. This IC50 and that of the compound before are within 1.5-fold of each other.

For the origin of these results see US8008505B2, “Indazole or 4,5,6,7-tetrahydro-indazole derivatives” (Hoffmann-La Roche Inc., priority 2008, dated 2011).
